# In patent US9447136B2, “Semisynthetic derivatives of Nystatin A1” (BLIRT S.A., priority 2012, dated 2016):
# Like-named read-outs stand apart in the source and are kept apart here.
# Tests used:
# [1] = test system: Aspergillus niger LOCK E201; test: Antifungal activity in vitro, serial dilution in RPMI 1640; assay type: cell-based; details: Table 2B
# How it was run: (§1)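 In buffered RPMI 1640 at pH 7.0, fungi were exposed to serially diluted compound (M27-A2 standard) and turbidity was recorded at 531 nm. Values relative to control: IC50 at 50%, MIC as lowest concentration at ≤20%.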
# [2] = test system: Candida albicans ATCC 10231; test: as above; assay type: cell-based; details: for Antifungal activity Candida albicans ATCC 10231 IC50 / Antifungal activity Candida albicans ATCC 10231 MIC: Table 2A, RPMI 1640, pH 7.0; for Antifungal activity Candida albicans ATCC 10231 IC50: A531 50% of control; for Antifungal activity Candida albicans ATCC 10231 MIC: A531 at most 20% of control; for MIC Candida albicans ATCC 10231: Table 2B
# How it was run: as §1
# [3] = test system: Candida arborea KKP 319; test: as above; assay type: cell-based; details: Table 2B
# How it was run: as §1
# [4] = test system: Candida dubliniensis CBS 7987; test: as above; assay type: cell-based; details: Table 2B
# How it was run: as §1
# [5] = test system: Candida glabrata DSM 11226; test: as above; assay type: cell-based; details: Table 2A; RPMI 1640, pH 7.0
# How it was run: as §1
# [6] = test system: Candida krusei DSM 6128; test: as above; assay type: cell-based; details: Table 2A; RPMI 1640, pH 7.0
# How it was run: as §1
# [7] = test system: Candida lipolytica KKP 322; test: as above; assay type: cell-based; details: Table 2B
# How it was run: as §1
# [8] = test system: Candida parapsilosis DSM 5784; test: as above; assay type: cell-based; details: Table 2B
# How it was run: as §1
# [9] = test system: Candida pseudotropicalis KKP 324; test: as above; assay type: cell-based; details: Table 2B
# How it was run: as §1
# [10] = test system: Candida quilliermondii DSM 11947; test: as above; assay type: cell-based; details: Table 2B
# How it was run: as §1
# [11] = test system: Candida stellatoidea CBS 1905; test: as above; assay type: cell-based; details: Table 2B
# How it was run: as §1
# [12] = test system: Candida tropicalis KKP 334; test: as above; assay type: cell-based; details: Table 2A; RPMI 1640, pH 7.0
# How it was run: as §1
# [13] = test system: Saccharomyces cerevisiae ATCC 9763; test: as above; assay type: cell-based; details: for Antifungal activity Saccharomyces cerevisiae ATCC 9763 MIC: Table 2A, RPMI 1640, pH 7.0, A531 at most 20% of control; for MIC Saccharomyces cerevisiae ATCC 9763: Table 2B
# How it was run: as §1
# [14] = test system: Trichoderma viride LOCK E159; test: as above; assay type: cell-based; details: Table 2B
# How it was run: as §1
# [15] = test system: Human erythrocytes; test: Hemotoxicity (hemolytic activity)
# How it was run: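 Human erythrocytes in saline (2×10^7/ml) were incubated with serially diluted compound at 37 °C for 30 min, then centrifuged. Released hemoglobin was read as A540 against 0.1% Triton X-100 as full hemolysis. EH50 is the interpolated concentration giving 50% of the control A540.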
# [16] = test system: Candida albicans 5674; test: Antifungal activity towards resistant (MDR) strains; assay type: cell-based; details: C. albicans 5674 overexpressing CDR1 and CDR2
# Protocol: (§2) The determination of antifungal activity was performed by the serial dilutions method in buffered RPMI 1640 medium, in a 96-wells microplates, according to the standard procedure (National Committee for Clinical Laboratory Standards. Reference method for broth dilution antifungal susceptibility testing of yeast, approved standard, 2nd ed. M27-A2 vol. 22 Wayne, Pa., 2002). The optical density of cells suspension was measured using a microplates reader (Victor^3, Perkin-Elmer) at the wavelength λ=660 nm (A660). On the basis of received results the diagrams on interrelation between the A660 value and the concentration of tested compound were made. From these graphs MIC values were read, that are the concentrations of tested compounds, in the presence at which A660 value is at most 20% of A660 value measured in control sample.
# [17] = test system: Candida albicans B3; test: as above; assay type: cell-based; details: fluconazole sensitive, parent strain for B4
# Protocol: as §2
# [18] = test system: Candida albicans B4; test: as above; assay type: cell-based; details: fluconazole-resistant due to the overexpression of CaMDR1
# Protocol: as §2
# [19] = test system: Candida albicans F2; test: as above; assay type: cell-based; details: fluconazole sensitive, parent strain for F5
# Protocol: as §2
# [20] = test system: Candida albicans F5; test: as above; assay type: cell-based; details: fluconazole-resistant due to the overexpression of CaMDR1 and ERG11
# Protocol: as §2
# [21] = test system: Candida albicans Gu4; test: as above; assay type: cell-based; details: fluconazole sensitive, parent strain for Gu5
# Protocol: as §2
# [22] = test system: Candida albicans Gu5; test: as above; assay type: cell-based; details: fluconazole-resistant due to the overexpression of CDR1 and CDR2
# Protocol: as §2
# [23] = test system: Candida albicans STY19; test: as above; assay type: cell-based; details: 5674 mutant derivative, deletion of CDR1
# Protocol: as §2
# [24] = test system: Candida albicans STY31; test: as above; assay type: cell-based; details: 5674 mutant derivative, deletion of CDR1 and CDR2
# Protocol: as §2
# [25] = test system: Candida albicans STY7; test: as above; assay type: cell-based; details: 5674 mutant derivative, deletion of CDR2
# Protocol: as §2
# [26] = test system: CCRF-CEM; test: Cytotoxic activity against mammalian cells in tissue culture (MTT); assay type: cell-based, human; details: CCRF-CEM, 120 h, MTT
# Protocol: (§3) For examinations were used selected cell lines: CCRF-CEM—human acute lymphoblastic leukemia; HepG2—human malignant hepatoma; LLC-PK1—epithelial cell of pig kidney; All lines were from ATCC collection.
# (§4) The study are conducted using described below methods of culturing and determination of cytotoxic activity.
# (§5) CCRF-CEM cells were cultured in medium RPMI 1640+10% fetal bovine serum (FBS), LLC-PK1 cells in medium Medium 199+3% FBS, HepG2 cells in medium MEM+10% FBS. All media contained 100 μg/ml of penicillin G and streptomycin. 24-wells microplates containing appropriate medium were inoculated with the cells in amount of 1.2×10^4 cells/well and allowed to stand overnight. Next, tested compounds as solution in dimethylsulfoxide (DMSO) were added in volume of 10 μl (serial 2× dilutions). To control well 10 μl of DMSO was added. Microplates with cell suspensions were incubated for 120 h at temperature 37° C. at atmosphere of 95%/5% CO2. After incubation, to all wells 200 μl of solution of 3-(4,5-dimethylthiazole-2-yl)-2,5-diphenylotetrazole bromide (MTT) in PBS (4 mg/ml) was added and plates were further incubated for 4 h at 37° C. Next, to dissolve crystals of formazane 1 ml of DMSO was added and absorption of solutions was measured at the wavelength λ=540 nm (A540), using a microplates reader (Victor^3, Perkin-Wallac). […] From these graphs IC50 values were read, that is concentration of tested compound in the presence at which A540 value is half of A540 value measured in the control sample.
# [27] = test system: HepG2; test: as above; assay type: cell-based, human; details: HepG2, 120 h, MTT
# Protocol: as §3, §4, §5
# [28] = test system: LLC-PK1; test: as above; assay type: cell-based, pig; details: LLC-PK1, 120 h, MTT
# Protocol: as §3, §4, §5
Molecule,MIC Aspergillus niger LOCK E201 [1] [µg/mL],Antifungal activity Candida albicans ATCC 10231 IC50 [2] [µg/mL],Antifungal activity Candida albicans ATCC 10231 MIC [2] [µg/mL],MIC Candida albicans ATCC 10231 [2] [µg/mL],MIC Candida arborea KKP 319 [3] [µg/mL],MIC Candida dubliniensis CBS 7987 [4] [µg/mL],Antifungal activity Candida glabrata DSM 11226 MIC [5] [µg/mL],Antifungal activity Candida krusei DSM 6128 MIC [6] [µg/mL],MIC Candida lipolytica KKP 322 [7] [µg/mL],MIC Candida parapsilosis DSM 5784 [8] [µg/mL],MIC Candida pseudotropicalis KKP 324 [9] [µg/mL],MIC Candida quilliermondii DSM 11947 [10] [µg/mL],MIC Candida stellatoidea CBS 1905 [11] [µg/mL],Antifungal activity Candida tropicalis KKP 334 MIC [12] [µg/mL],Antifungal activity Saccharomyces cerevisiae ATCC 9763 MIC [13] [µg/mL],MIC Saccharomyces cerevisiae ATCC 9763 [13] [µg/mL],MIC Trichoderma viride LOCK E159 [14] [µg/mL],MIC Candida albicans 5674 [16] [µg/mL],MIC Candida albicans B3 [17] [µg/mL],MIC Candida albicans B4 [18] [µg/mL],also measured
"CCN(CC)[C@@H](Cc1ccccc1)C(=O)NC1C(O)C(C)OC(O[C@H]2/C=C/C=C/C=C/C=C/CC/C=C/C=C/[C@H](C)[C@@H](O)[C@@H](C)[C@H](C)OC(=O)C[C@H](O)C[C@H](O)C[C@H](O)CC[C@@H](O)[C@H](O)CC3(O)C[C@H](O)[C@@H](C(=O)O)[C@H](C2)O3)C1O (stereo partly drawn) [Compound N46, N—[L-(N,N-diethyl)phenylalanyl]nystatin A1]",32,2.83,4,4,32,16,8,8,16,32,16,32,8,4,4,4,16,32,8,8,% of hemolysis at the concentration 60 μg ml^−1 [15]: 0.37%; MIC Candida albicans F2 [19]: 16 µg/mL; MIC Candida albicans F5 [20]: 16 µg/mL; MIC Candida albicans Gu4 [21]: 8 µg/mL; MIC Candida albicans Gu5 [22]: 16 µg/mL; MIC Candida albicans STY19 [23]: 32 µg/mL; MIC Candida albicans STY31 [24]: 32 µg/mL; MIC Candida albicans STY7 [25]: 32 µg/mL; Cytotoxicity IC50 CCRF-CEM [26]: >100 µg/mL; Cytotoxicity IC50 HepG2 [27]: >100 µg/mL; Cytotoxicity IC50 LLC-PK1 [28]: >100 µg/mL
"N-[L-(N,N-dimethyl)phenylalanyl]nystatin A1 [Compound N45]",8,2.83,4,4,8,2,4,8,8,4,4,4,4,4,2,2,16,8,4,4,"% of hemolysis at the concentration 300 μg ml^−1 [15]: 7.11%; EH10 ([15]; human erythrocytes, concentration causing 10% of hemolysis): >300 µg/mL; MIC Candida albicans F2 [19]: 8 µg/mL; MIC Candida albicans F5 [20]: 8 µg/mL; MIC Candida albicans Gu4 [21]: 4 µg/mL; MIC Candida albicans Gu5 [22]: 4 µg/mL; MIC Candida albicans STY19 [23]: 4 µg/mL; MIC Candida albicans STY31 [24]: 8 µg/mL; MIC Candida albicans STY7 [25]: 8 µg/mL; Cytotoxicity IC50 CCRF-CEM [26]: >100 µg/mL; Cytotoxicity IC50 HepG2 [27]: >100 µg/mL; Cytotoxicity IC50 LLC-PK1 [28]: >100 µg/mL"
N-fructosyl-N-methylnystatin A1 [Compound N28],16,5.80,8,8,32,8,16,16,8,16,8,16,8,8,4,4,16,16,8,8,"Hemotoxicity BEH50 ([15]; human erythrocytes, 37° C., 30 minutes, concentration causing 50% hemolysis, maximum concentration 300 μg/ml): >250 µg/mL; % of hemolysis at the concentration 60 μg ml^−1 ([15]; human erythrocytes, 60 μg ml^−1): 0.17%; MIC Candida albicans F2 [19]: 8 µg/mL; MIC Candida albicans F5 [20]: 16 µg/mL; MIC Candida albicans Gu4 [21]: 8 µg/mL; MIC Candida albicans Gu5 [22]: 16 µg/mL; MIC Candida albicans STY19 [23]: 16 µg/mL; MIC Candida albicans STY31 [24]: 16 µg/mL; MIC Candida albicans STY7 [25]: 16 µg/mL; Cytotoxicity IC50 CCRF-CEM [26]: >100 µg/mL; Cytotoxicity IC50 HepG2 [27]: >100 µg/mL; Cytotoxicity IC50 LLC-PK1 [28]: >100 µg/mL"
